The test has as its target T1, ACVR1 (ALK2) (Homo sapiens, UniProt Q04771).
T1 construct: purchased Thermo Fisher Scientific (Life Technologies) SelectScreen
Put plainly: SelectScreen LanthaScreen. The test is classed as binding. As to conditions: read-out: % displacement. In short, it runs like this: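 SelectScreen broad panel; activity (Z'LYTE, Adapta) plus binding formats. ATP: Km app for CSF1R Z'LYTE; 10 for CAMK1 Adapta. Readout = % per kinase.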

Data on one compound can be found in paper PMC6934184, “Selective DNA-PKcs inhibition extends the therapeutic index of localized radiotherapy and chemotherapy” (The Journal of Clinical Investigation, 2019).

T1 sequence (Q04771 21-509): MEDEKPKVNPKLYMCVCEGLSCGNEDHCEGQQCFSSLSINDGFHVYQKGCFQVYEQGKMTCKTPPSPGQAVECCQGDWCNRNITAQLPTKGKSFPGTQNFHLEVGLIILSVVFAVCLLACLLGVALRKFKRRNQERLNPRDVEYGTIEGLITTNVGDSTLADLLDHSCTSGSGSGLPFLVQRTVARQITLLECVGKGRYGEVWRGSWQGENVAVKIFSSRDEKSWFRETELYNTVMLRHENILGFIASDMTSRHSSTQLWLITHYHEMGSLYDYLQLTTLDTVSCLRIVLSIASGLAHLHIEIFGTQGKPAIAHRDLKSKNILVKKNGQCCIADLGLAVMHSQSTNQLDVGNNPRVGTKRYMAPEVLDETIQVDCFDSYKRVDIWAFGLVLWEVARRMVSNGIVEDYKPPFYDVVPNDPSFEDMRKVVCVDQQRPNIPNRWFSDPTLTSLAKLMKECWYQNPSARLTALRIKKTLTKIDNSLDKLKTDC

As to `CN(C(=O)CN1CCOCC1)c1ccc2sc3c(-c4cccc5c(=O)cc(N6CC7CCC(C6)O7)oc45)cccc3c2c1` [NU5455], the inhibition at 1 µM turned out to be 0.7%.
